According to patent publication US8952024B2, “Herbicidal pyrimidone derivatives” (E I du Pont de Nemours and Company, priority 2009, dated 2015):

What was measured:
Type in all cases: in vivo
[1] = tested on: barnyardgrass (Echinochloa crus-galli); experiment: Test A pre-/postemergence plant response
Summary of the method: (§1)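 Seeds planted in loam soil/sand blend; test chemicals in non-phytotoxic solvent mixture with surfactant applied as directed soil spray preemergence and, concurrently, postemergence to plants 2–10 cm tall at one- to two-leaf stage. Greenhouse ~10 days; visual injury vs untreated controls, 0 (no effect) to 100 (complete control).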

[2] = tested on: corn (Zea mays); experiment: Test A pre-/postemergence plant response
Summary of the method: as §1

[3] = tested on: giant foxtail (Setaria faberii); experiment: Test A pre-/postemergence plant response
Summary of the method: as §1

[4] = tested on: large crabgrass (Digitaria sanguinalis); experiment: Test A pre-/postemergence plant response
Summary of the method: as §1

[5] = tested on: morningglory (Ipomoea spp.); experiment: Test A pre-/postemergence plant response
Summary of the method: as §1

[6] = tested on: pigweed (Amaranthus retroflexus); experiment: Test A pre-/postemergence plant response
Summary of the method: as §1

[7] = tested on: velvetleaf (Abutilon theophrasti); experiment: Test A pre-/postemergence plant response
Summary of the method: as §1

[8] = tested on: wheat (Triticum aestivum); experiment: Test A pre-/postemergence plant response
Summary of the method: as §1

[9] = tested on: barnyardgrass (Echinochloa crus-galli); experiment: Test B flooded paddy test; settings: for Plant response rating, Flood, Barnyardgrass: 250 g ai/ha, flooded paddy test, visual rating on 0 to 100 scale (0 no effect, 100 complete control) after 13 to 15 days; for Plant response rating, Barnyardgrass: Flood (flooded paddy test), 13 to 15 days; for Barnyardgrass plant response rating: Flood, 31 g ai/ha, scale 0 to 100 (0 no effect, 100 complete control)
Summary of the method: (§2)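 Each compound is added to standing floodwater (3 cm above soil, maintained) in pots of 2-leaf-stage plants; greenhouse exposure lasts 13–15 d before visual comparison with controls on a 0–100 control scale.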

[10] = tested on: ducksalad (Heteranthera limosa); experiment: Test B flooded paddy test; settings: for Plant response rating, Flood, Ducksalad: 250 g ai/ha, flooded paddy test, visual rating on 0 to 100 scale (0 no effect, 100 complete control) after 13 to 15 days; for Plant response rating, Ducksalad: Flood (flooded paddy test), 13 to 15 days; for Ducksalad plant response rating: Flood, 31 g ai/ha, scale 0 to 100 (0 no effect, 100 complete control)
Summary of the method: as §2

[11] = tested on: rice (Oryza sativa); experiment: Test B flooded paddy test; settings: for Plant response rating, Flood, Rice: 250 g ai/ha, flooded paddy test, visual rating on 0 to 100 scale (0 no effect, 100 complete control) after 13 to 15 days; for Plant response rating, Rice: Flood (flooded paddy test), 13 to 15 days; for Rice plant response rating: Flood, 31 g ai/ha, scale 0 to 100 (0 no effect, 100 complete control)
Summary of the method: as §2

[12] = tested on: umbrella sedge (Cyperus difformis); experiment: Test B flooded paddy test; settings: for Plant response rating, Flood, Sedge, Umbrella: 250 g ai/ha, flooded paddy test, visual rating on 0 to 100 scale (0 no effect, 100 complete control) after 13 to 15 days; for Plant response rating, Sedge, Umbrella: Flood (flooded paddy test), 13 to 15 days; for Sedge, Umbrella plant response rating: Flood, 31 g ai/ha, scale 0 to 100 (0 no effect, 100 complete control)
Summary of the method: as §2

[13] = Postemergence, 125 g ai/ha, 0 to 100 scale where 0 is no effect and 100 is complete control
[14] = Postemergence, 500 g ai/ha, 0 to 100 scale, 0 = no effect, 100 = complete control, approx. ten days
[15] = Preemergence, 125 g ai/ha, 0 to 100 scale, 0 = no effect, 100 = complete control
[16] = Preemergence, 500 g ai/ha, visual injury, 0 to 100 scale (0 no effect, 100 complete control), approx. ten days
[17] = 62 g ai/ha, scale of 0 to 100 where 0 is no effect and 100 is complete control
[18] = 125 g ai/ha, scale 0 to 100, 0 is no effect, 100 is complete control
[19] = Postemergence, 500 g ai/ha, visual injury, 0 to 100 scale (0 no effect, 100 complete control), approx. ten days
[20] = Preemergence, 500 g ai/ha, 0 to 100 scale, 0 = no effect, 100 = complete control

O=C1CCCC(O)=C1C(=O)c1cnc(-c2ccco2)n(-c2ccccc2)c1=O [Compound 76]
Plant response rating, Barnyardgrass [1, 13]: 50 | Plant response rating, Barnyardgrass [1, 14]: 80 | Plant response rating, Barnyardgrass [1, 15]: 0 | Plant response rating, Barnyardgrass [1, 16]: 30 | Plant response rating, Corn [2, 13]: 0 | Plant response rating, Corn [2, 14]: 20 | Plant response rating, Corn [2, 15]: 0 | Plant response rating, Corn [2, 16]: 0 | Plant response rating, Foxtail, Giant [3, 13]: 40 | Plant response rating, Foxtail, Giant [3, 14]: 70 | Plant response rating, Foxtail, Giant [3, 15]: 0 | Plant response rating, Foxtail, Giant [3, 16]: 30 | Plant response rating, Crabgrass, Large [4, 13]: 70 | Plant response rating, Crabgrass, Large [4, 14]: 90 | Plant response rating, Crabgrass, Large [4, 15]: 50 | Plant response rating, Crabgrass, Large [4, 16]: 100 | Plant response rating, Morningglory [5, 13]: 90 | Plant response rating, Morningglory [5, 14]: 90 | Plant response rating, Morningglory [5, 15]: 0 | Plant response rating, Morningglory [5, 16]: 50 | Plant response rating, Pigweed [6, 13]: 90 | Plant response rating, Pigweed [6, 14]: 100 | Plant response rating, Pigweed [6, 15]: 50 | Plant response rating, Pigweed [6, 16]: 100 | Plant response rating, Velvetleaf [7, 13]: 100 | Plant response rating, Velvetleaf [7, 14]: 100 | Plant response rating, Velvetleaf [7, 15]: 20 | Plant response rating, Velvetleaf [7, 16]: 70 | Plant response rating, Wheat [8, 13]: 0 | Plant response rating, Wheat [8, 14]: 10 | Plant response rating, Wheat [8, 15]: 0 | Plant response rating, Wheat [8, 16]: 20 | Plant response rating, Flood, Barnyardgrass [9]: 0 | Plant response rating, Barnyardgrass [9, 17]: 0 | Plant response rating, Barnyardgrass [9, 18]: 0 | Barnyardgrass plant response rating [9]: 0 | Plant response rating, Flood, Ducksalad [10]: 0 | Plant response rating, Ducksalad [10, 17]: 0 | Plant response rating, Ducksalad [10, 18]: 0 | Ducksalad plant response rating [10]: 0 | Plant response rating, Flood, Rice [11]: 0 | Plant response rating, Rice [11, 17]: 0 | Plant response rating, Rice [11, 18]: 0 | Rice plant response rating [11]: 0 | Plant response rating, Flood, Sedge, Umbrella [12]: 0 | Plant response rating, Sedge, Umbrella [12, 17]: 0 | Plant response rating, Sedge, Umbrella [12, 18]: 0 | Sedge, Umbrella plant response rating [12]: 0

O=C1CCCC(O)=C1C(=O)c1cnc(-c2cccc(F)c2)n(-c2ccccc2)c1=O [Compound 199]
Plant response rating, Barnyardgrass [1, 13]: 90 | Barnyardgrass plant response rating [1, 19]: 100 | Plant response rating, Barnyardgrass [1, 15]: 20 | Plant response rating, Barnyardgrass [1, 20]: 90 | Plant response rating, Corn [2, 13]: 0 | Corn plant response rating [2, 19]: 50 | Plant response rating, Corn [2, 15]: 20 | Plant response rating, Corn [2, 20]: 30 | Plant response rating, Foxtail, Giant [3, 13]: 100 | Foxtail, Giant plant response rating [3, 19]: 100 | Plant response rating, Foxtail, Giant [3, 15]: 60 | Plant response rating, Foxtail, Giant [3, 20]: 90 | Plant response rating, Crabgrass, Large [4, 13]: 70 | Crabgrass, Large plant response rating [4, 19]: 100 | Plant response rating, Crabgrass, Large [4, 15]: 60 | Plant response rating, Crabgrass, Large [4, 20]: 100 | Plant response rating, Morningglory [5, 13]: 100 | Morningglory plant response rating [5, 19]: 100 | Plant response rating, Morningglory [5, 15]: 70 | Plant response rating, Morningglory [5, 20]: 80 | Plant response rating, Pigweed [6, 13]: 100 | Pigweed plant response rating [6, 19]: 100 | Plant response rating, Pigweed [6, 15]: 80 | Plant response rating, Pigweed [6, 20]: 100 | Plant response rating, Velvetleaf [7, 13]: 100 | Velvetleaf plant response rating [7, 19]: 100 | Plant response rating, Velvetleaf [7, 15]: 90 | Plant response rating, Velvetleaf [7, 20]: 100 | Plant response rating, Wheat [8, 13]: 0 | Wheat plant response rating [8, 19]: 10 | Plant response rating, Wheat [8, 15]: 0 | Plant response rating, Wheat [8, 20]: 20 | Plant response rating, Flood, Barnyardgrass [9]: 25 | Plant response rating, Barnyardgrass [9, 17]: 0 | Plant response rating, Barnyardgrass [9, 18]: 15 | Barnyardgrass plant response rating [9]: 0 | Plant response rating, Flood, Ducksalad [10]: 90 | Plant response rating, Ducksalad [10, 17]: 85 | Plant response rating, Ducksalad [10, 18]: 85 | Ducksalad plant response rating [10]: 85 | Plant response rating, Flood, Rice [11]: 0 | Plant response rating, Rice [11, 17]: 0 | Plant response rating, Rice [11, 18]: 0 | Rice plant response rating [11]: 0 | Plant response rating, Flood, Sedge, Umbrella [12]: 85 | Plant response rating, Sedge, Umbrella [12, 17]: 70 | Plant response rating, Sedge, Umbrella [12, 18]: 75 | Sedge, Umbrella plant response rating [12]: 60

O=C1CCCC(O)=C1C(=O)c1cnc(-c2ccccc2)n(C2CC[S+]([O-])CC2)c1=O (mixture of isomers) [Compound 168, 5-[(2-hydroxy-6-oxo-1-cyclohexen-1-yl)carbonyl]-2-phenyl-3-(cis/trans-tetrahydro-1-oxido-2H-thiopyran-4-yl)-4(3H)-pyrimidinone]
Plant response rating, Barnyardgrass [1, 13]: 30 | Barnyardgrass plant response rating [1, 19]: 100 | Plant response rating, Barnyardgrass [1, 15]: 0 | Plant response rating, Barnyardgrass [1, 20]: 20 | Plant response rating, Corn [2, 13]: 20 | Corn plant response rating [2, 19]: 30 | Plant response rating, Corn [2, 15]: 0 | Plant response rating, Corn [2, 20]: 0 | Plant response rating, Foxtail, Giant [3, 13]: 50 | Foxtail, Giant plant response rating [3, 19]: 90 | Plant response rating, Foxtail, Giant [3, 15]: 10 | Plant response rating, Foxtail, Giant [3, 20]: 70 | Plant response rating, Crabgrass, Large [4, 13]: 50 | Crabgrass, Large plant response rating [4, 19]: 90 | Plant response rating, Crabgrass, Large [4, 15]: 30 | Plant response rating, Crabgrass, Large [4, 20]: 80 | Plant response rating, Morningglory [5, 13]: 100 | Morningglory plant response rating [5, 19]: 100 | Plant response rating, Morningglory [5, 15]: 0 | Plant response rating, Morningglory [5, 20]: 70 | Plant response rating, Pigweed [6, 13]: 100 | Pigweed plant response rating [6, 19]: 100 | Plant response rating, Pigweed [6, 15]: 10 | Plant response rating, Pigweed [6, 20]: 50 | Plant response rating, Velvetleaf [7, 13]: 100 | Velvetleaf plant response rating [7, 19]: 100 | Plant response rating, Velvetleaf [7, 15]: 0 | Plant response rating, Velvetleaf [7, 20]: 60 | Plant response rating, Wheat [8, 13]: 0 | Wheat plant response rating [8, 19]: 50 | Plant response rating, Wheat [8, 15]: 0 | Plant response rating, Wheat [8, 20]: 0 | Plant response rating, Barnyardgrass [9, 18]: 0 | Barnyardgrass plant response rating [9]: 0 | Plant response rating, Ducksalad [10, 18]: 30 | Ducksalad plant response rating [10]: 0 | Plant response rating, Rice [11, 18]: 0 | Rice plant response rating [11]: 0 | Plant response rating, Sedge, Umbrella [12, 18]: 20 | Sedge, Umbrella plant response rating [12]: 0
